According to patent US10919941B2, “Functional lipid constructs” (KODE BIOTECH LIMITED, priority 2007, dated 2021):
No end group written: not given here. *: point of attachment. For = O=C*

What was measured:
[1] = test system: Miltenberger antibody positive samples and false positive antibody negative samples; experiment: Reactivity of RBCs modified with capped peptide-lipid constructs in alternative configurations; assay type: cell-based; parameters: key: 0 or ‘−’ no agglutination; 0 or ‘−’ no agglutination; 1+ or 3=very weak agglutination; 1+ or 3=very weak agglutination; 2+ or 5=weak agglutination; 2+ or 5=weak agglutination; 3+ or 8=moderate strong agglutination; 3+ or 8=moderate strong agglutination; 4+ or 10/12=strong agglutination; 4+ or 10/12=strong agglutination; 4+ or 10/12=strong agglutination; conditions: capped construct 50 μg/mL, 2 hours at 37° C.
Description: Peptide-lipid constructs comprising CMG(2) and the following peptides were prepared:
The termini of the peptides were formylated and amidated to provide “capped” peptides. The reactivity of random Miltenberger antibody positive samples and three false positive antibody negative samples were tested against RBCs modified to incorporate these “capped” peptide-lipid constructs (50 μg/mL, 2 hours at 37° C.).
The reactivity was assessed and recorded in Table 24. […] However, linkage of the peptide via a Cys residue located at the amino terminus (as opposed to the carboxy terminus) appeared to reduce the likelihood of reactivity with the false-positive antibody negative samples and improve reactivity with the known antibody positive samples.

[2] = test system: Miltenberger antibody positive sera; experiment: BioVue AHG card column agglutination serology of modified red blood cells; assay type: cell-based, human; parameters: key: 0 or ‘−’ no agglutination; 0 or ‘−’ no agglutination; 1+ or 3=very weak agglutination; 1+ or 3=very weak agglutination; 2+ or 5=weak agglutination; 2+ or 5=weak agglutination; 3+ or 8=moderate strong agglutination; 3+ or 8=moderate strong agglutination; 4+ or 10/12=strong agglutination; 4+ or 10/12=strong agglutination; 4+ or 10/12=strong agglutination; conditions: construct 50 μg/ml
Description: Red blood cells are modified by mixing 1 part by volume of washed packed red blood cells with 1 part by volume of peptide-lipid construct dispersed at a concentration of 10 to 1000 pg/ml in cell media (Celpresol™).
(§1) The suspensions are either: • 1. incubated for 2 hours at 37° C. before being washed and suspended in a cell medium for serological analysis at a concentration of 0.8 to 3% (Method 1); or • 2. incubated for 3 to 4 hours at room temperature (circa 25° C.) followed by 18 hours at 4° C. before being washed and suspended in a cell medium for serological analysis at a concentration of 0.8 to 3% (Method 2).
(§2) Serological reactions are graded or scored by either of two established systems (0 or ‘−’ no agglutination, 1+ or 3=very weak agglutination, 2+ or 5=weak agglutination, 3+ or 8=moderate strong agglutination, 4+ or 10/12=strong agglutination)
Serological platforms used are Tube (addition of reagents and reactants into plastic or glass serology tubes and after appropriate incubations, washing and centrifugation observing reactions macroscopically by eye and a 10× magnification eyepiece and scoring) and BioVue™ (addition of reactants into cassettes containing beads (including some reactants) and after appropriate incubations and centrifugation observing the reaction patterns trapped within the Gel matrix). BioVue is the serological column agglutination platform of Ortho-Clinical Diagnostics. Diamed is the serological column agglutination platform of Diamed AG.

[3] = test system: TAP1 serum (Taiwan Miltenberger antibody positive sample); experiment: Anti-MUT serum (TAP1) reactivity of modified RBCs (saline and AHG); assay type: cell-based, human; parameters: key: 0 or ‘−’ no agglutination; 0 or ‘−’ no agglutination; 1+ or 3=very weak agglutination; 1+ or 3=very weak agglutination; 2+ or 5=weak agglutination; 2+ or 5=weak agglutination; 3+ or 8=moderate strong agglutination; 3+ or 8=moderate strong agglutination; 4+ or 10/12=strong agglutination; 4+ or 10/12=strong agglutination; 4+ or 10/12=strong agglutination; conditions: construct 50 μg/ml (2 hours, 37° C.)
Description: as §1, §2

[4] = test system: Miltenberger Antibody Positive Panel; experiment: Reactivity of modified RBCs against the Miltenberger Antibody Positive Panel; assay type: cell-based, human; parameters: key to score vs panel 15 TAP2 / score vs panel 4 T7202 / score vs panel 8 T5896 / score vs panel 2 T217 / score vs panel 3 T165 / score vs panel 14 TAP1 / score vs panel 10 Mia / score vs panel 11 Mur / score vs panel 12 Gam / score vs panel 6 T6025 / score vs panel 7 T8445 / score vs panel 9 MIII / score vs panel 13 BoxH / reactivity with Panel Serum #7 (T8445) / agglutination score, Panel Serum #7 (T8445): 0 or ‘−’ no agglutination; 0 or ‘−’ no agglutination; 1+ or 3=very weak agglutination; 1+ or 3=very weak agglutination; 2+ or 5=weak agglutination; 2+ or 5=weak agglutination; 3+ or 8=moderate strong agglutination; 3+ or 8=moderate strong agglutination; 4+ or 10/12=strong agglutination; 4+ or 10/12=strong agglutination; 4+ or 10/12=strong agglutination; conditions: for score vs panel 2 T217 / score vs panel 3 T165 / score vs panel 4 T7202 / score vs panel 8 T5896 / score vs panel 14 TAP1 / score vs panel 15 TAP2: Table 8, construct 50 μg/ml; for sensitivity and specificity towards a human polyclonal antibody panel compared with sequence 1: MUT peptides, prior art sequence 1
antibody negative serums = experiment: False positive reactions of modified RBCs with antibody negative serums/plasma; assay type: cell-based, human; parameters: key to Reaction score BioVue AHG, PAC samples 1-46, 49, 50, 52, 53 / Reaction score BioVue AHG, PAC sample 47 / Reaction score BioVue AHG, PAC sample 48 / Reaction score BioVue AHG, PAC sample 51 / agglutination score, T series serum 2 / agglutination score, T series serum 42 / agglutination score, T series serum 63 / agglutination score, T series serum 62 / agglutination score, T series serum 7 / agglutination score, T series serum 20 / agglutination score, T series serum 48 / agglutination score, T series serum 22 / agglutination score, T series serum 39 / agglutination score, T series serum 23 / agglutination score, T series serum 30 / agglutination score, T series serum 4 / agglutination score, T series serum 31 / agglutination score, T series serum 44 / agglutination score, T series serum 61 / agglutination score, T series serum 18 / agglutination score, T series serum 21 / agglutination score, T series serum 28 / agglutination score, T series serum 55 / agglutination score, false positive serum T18 / agglutination score, false positive serum T21 / agglutination score, false positive serum T28 / agglutination score, false positive serum T55 / agglutination score, false positive serum T78 / agglutination score, false positive serum T92: 0 or ‘−’ no agglutination; 0 or ‘−’ no agglutination; 1+ or 3=very weak agglutination; 1+ or 3=very weak agglutination; 2+ or 5=weak agglutination; 2+ or 5=weak agglutination; 3+ or 8=moderate strong agglutination; 3+ or 8=moderate strong agglutination; 4+ or 10/12=strong agglutination; 4+ or 10/12=strong agglutination; 4+ or 10/12=strong agglutination; conditions: for Reaction score BioVue AHG, PAC sample 47 / Reaction score BioVue AHG, PAC sample 48 / Reaction score BioVue AHG, PAC sample 51 / Reaction score BioVue AHG, PAC samples 1-46, 49, 50, 52, 53: blood donor plasma, construct 50 μg/ml (2 hours, 37° C.); for % False Positives: panel of blood donor plasma samples (PAC), BioVue AHG, construct 50 μg/ml

Row | Substance | BioVue score vs TAP1 [2] | BioVue score vs positive sample 2 T217 (T) [2] | BioVue score vs positive sample 3 T165 (Mur) [2] | BioVue score vs positive sample 4 T7202 (M) [2] | BioVue score vs positive sample 8 T5896 (M + K + Mur) [2] | Reactivity with anti-MUT serum TAP1 [3] | score vs panel 2 T217 [4] | score vs panel 3 T165 [4] | score vs panel 4 T7202 [4] | score vs panel 8 T5896 [4] | score vs panel 14 TAP1 [4] | score vs panel 15 TAP2 [4] | Reaction score BioVue AHG, PAC sample 47 (antibody negative serums) | Reaction score BioVue AHG, PAC sample 48 (antibody negative serums) | Reaction score BioVue AHG, PAC sample 51 (antibody negative serums) | Reaction score BioVue AHG, PAC samples 1-46, 49, 50, 52, 53 (antibody negative serums) | % False Positives (antibody negative serums) | further results
1 | M44: capped peptide-lipid construct comprising CMG(2) and ThrTyrProAlaHisThrAlaAsnGluCys (For-TYPAHTANEC-NH2; also: capped peptide-lipid construct comprising CMG(2)) |  |  |  |  |  |  |  |  |  |  |  |  |  |  |  |  |  | agglutination score, antibody positive serum 55 [1]: 8; agglutination score, antibody positive serum 61 [1]: 8; agglutination score, antibody positive serum 65 [1]: 10; agglutination score, antibody positive serum 67 [1]: 8; agglutination score, antibody positive serum 68 [1]: 0; agglutination score, antibody positive serum 71 [1]: 10; agglutination score, antibody positive serum 942-433813-3 [1]: 0; agglutination score, false-positive antibody negative serum PAC302 [1]: 5; agglutination score, false-positive antibody negative serum PAC332 [1]: 12; agglutination score, false-positive antibody negative serum PAC340 [1]: 5
2 | M35: DOPE peptide-lipid construct: MUTK peptide QTNDKHKRDT, leader c, spacer CMG(2) (QTNDKHKRDTC; also: DOPE peptide-lipid construct via leader Cys, spacer CMG(2)) | 5 | 0 | 0 | 0 | 0 | 5 | 0 | 0 | 0 | 0 | 5 | 0 |  |  |  |  |  | 
3 | M36: DOPE peptide-lipid construct: MUTK peptide SQTNDKHKRDT, leader c, spacer CMG(2) (SQTNDKHKRDTC; also: DOPE peptide-lipid construct via leader Cys, spacer CMG(2)) | 8 | 0 | 0 | 0 | 0 | 8 | 0 | 0 | 0 | 0 | 8 | 0 | 3 | 5 | 0 | 0 | 3.8% | sensitivity and specificity towards a human polyclonal antibody panel compared with sequence 1 [4]: superior sensitivity and specificity
4 | M34: DOPE peptide-lipid construct: MUTK peptide SSQTNDKHKR, leader c, spacer CMG(2) (SSQTNDKHKRC; also: DOPE peptide-lipid construct via leader Cys, spacer CMG(2)) | 5 | 0 | 0 | 0 | 0 | 5 | 0 | 0 | 0 | 0 | 3 | 0 | 0 | 3 | 5 | 0 | 3.8% | 
5 | M45: capped peptide-lipid construct comprising CMG(2) and CysThrTyrProAlaHisThrAlaAsnGlu (For-CTYPAHTANE-NH2; also: capped peptide-lipid construct comprising CMG(2)) |  |  |  |  |  |  |  |  |  |  |  |  |  |  |  |  |  | agglutination score, antibody positive serum 55 [1]: 8; agglutination score, antibody positive serum 61 [1]: 5; agglutination score, antibody positive serum 65 [1]: 8; agglutination score, antibody positive serum 67 [1]: 10; agglutination score, antibody positive serum 68 [1]: 0; agglutination score, antibody positive serum 71 [1]: 10; agglutination score, antibody positive serum 942-433813-3 [1]: 5; agglutination score, false-positive antibody negative serum PAC302 [1]: 0; agglutination score, false-positive antibody negative serum PAC332 [1]: 0; agglutination score, false-positive antibody negative serum PAC340 [1]: 0
6 | M33: DOPE peptide-lipid construct: MUTK peptide QTNDKHKRDTY, leader c, spacer CMG(2) (QTNDKHKRDTYC; also: DOPE peptide-lipid construct via leader Cys, spacer CMG(2)) | 3 | 0 | 0 | 0 | 0 | 3 | 0 | 0 | 0 | 0 | 8 | 0 |  |  |  |  |  | 
7 | M37: DOPE peptide-lipid construct: MUTK peptide TNDKHKRDTYP, leader c, spacer CMG(2) (TNDKHKRDTYPC; also: DOPE peptide-lipid construct via leader Cys, spacer CMG(2)) | 8 | 5 | 0 | 8 | 0 | 8 | 5 | 0 | 8 | 0 | 8 | 0 | 0 | 0 | 0 | 0 | 0% | sensitivity and specificity towards a human polyclonal antibody panel compared with sequence 1 [4]: superior sensitivity and specificity
